pIC50: −log10 of the molar value.
Tests used:
LATS1/2 = biological target: T1, LATS1/2; assay: TR-FRET LanthaScreen binding assay; conditions: LATS1 (aa 589-1130), LATS2 (aa 488-1080), kinase tracer 236
T1 construct: LATS1 (amino acids 589-1130; ThermoFisher, PV6363), LATS2 (amino acids 488-1080; fused on or other part: GST tag, inferred from the LanthaScreen Eu-anti-GST antibody and the ThermoFisher products
Description: IC50 scores were determined using a TR-FRET LanthaScreen binding assay using LATS1 (amino acids 589-1130; ThermoFisher, PV6363), LATS2 (amino acids 488-1080; ThermoFisher, PV6366); kinase tracer 236 (ThermoFisher, PV5592); LanthaScreen Eu-anti-GST (ThermoFisher, PV3189); 5× kinase buffer A (ThermoFisher, PV6135); low-volume 384-well plate format.

[1] = test system: YAP phosphorylation in PANC1 cells; assay: YAP phosphorylation in PDAC PANC1 cells (FIG. 1); type: cell-based; conditions: 48 h; for overall YAP levels / p-YAP levels (YAP phosphorylation): 5 μM and 25 μM
Description: FIG. 1 is an image showing that the LATS1/2 inhibitors of the invention reduce YAP phosphorylation in PDAC PANC1 cells in a dose-dependent manner. FIG. 1 consists of two columns. On the left: the cells were treated with control and 5 μM of each of the compounds of the invention. Control in lane “C.” In lane “1” is 4-(6-(4-(2-morpholinoethoxy)phenyl)imidazo[1,2-b]pyridazin-3-yl)benzamide (compound 1). In lane “2” is 4-(6-(3-aminopiperidin-1-yl)imidazo[1,2-b]pyridazin-3-yl)benzamide (compound 3). In lane “4” is 4-(6-(4-aminopiperidin-1-yl)imidazo[1,2-b]pyridazin-3-yl)benzamide (compound 4). In lane “6” is 4-(6-(piperazin-1-yl)imidazo[1,2-b]pyridazin-3-yl)benzamide (compound 2). In lane “7” is 4-(4-(4-(4-chlorophenyl)piperidin-4-yl)phenyl)-3-methyl-1H-pyrazolo[4,3-c]pyridine (compound 5).
(§1) On the left: the cells were treated with control and 25 μM of each of the compounds of the invention. Control in lane “C.” In lane “1” is 4-(6-(4-(2-morpholinoethoxy)phenyl)imidazo[1,2-b]pyridazin-3-yl)benzamide (compound 1). In lane “2” is 4-(6-(3-aminopiperidin-1-yl)imidazo[1,2-b]pyridazin-3-yl)benzamide (compound 3). In lane “4” is 4-(6-(4-aminopiperidin-1-yl)imidazo[1,2-b]pyridazin-3-yl)benzamide (compound 4). In lane “6” is 4-(6-(piperazin-1-yl)imidazo[1,2-b]pyridazin-3-yl)benzamide (compound 2). In lane “7” is 4-(4-(4-(4-chlorophenyl)piperidin-4-yl)phenyl)-3-methyl-1H-pyrazolo[4,3-c]pyridine (Compound 5).
(§2) YAP is stained for Yes-associated protein; p-YAP is stained for phosphorylated Yes-associated protein; GAPDH is a standard protein loading control.

[2] = test system: ABCG2 transcription in PANC1 cells; assay: ABCG2 transcription in PDAC PANC1 cells (FIG. 2); type: cell-based; conditions: 25 μM, 48-hour treatment
Description: FIG. 2 is an image showing that the LATS1/2 inhibitors of the invention reduce transcription of ABCG2, a critical multidrug efflux transporter, in PDAC PANC1 cells. The y-axis is the normalized transcription level of ABCG2. The bar labeled ABCG2_control represents PANC1 cells that received no treatment. The bar labeled ABCG2_201 represents PANC1 cells treated with 4-(6-(4-(2-morpholinoethoxy)phenyl)imidazo[1,2-b]pyridazin-3-yl)benzamide (compound 1) at 25 μM. The bar labeled ABCG2_206 represents cells treated with 4-(6-(piperazin-1-yl)imidazo[1,2-b]pyridazin-3-yl)benzamide (compound 2) 25 μM.

PANC1 cells = assay: Killing of PANC1 cells observed in the FIG. 1 experiment; type: cell-based; conditions: higher dose (25 μM)
Description: as §1, §2

| pIC50 (LATS1/2) | Structure (SMILES) | overall YAP levels [1] | p-YAP levels (YAP phosphorylation) [1] | ABCG2 transcription levels [2] | killing of PANC1 cells at the higher dose (PANC1 cells) | p-YAP levels at the lower dose ([1]; lower dose (5 μM)) |
| --- | --- | --- | --- | --- | --- | --- |
| 7.30 to 10.00 | NC(=O)c1ccc(-c2cnc3ccc(N4CCNCC4)nn23)cc1 [Compound 2, 4-(6-(piperazin-1-yl)imidazo[1,2-b]pyridazin-3-yl)benzamide] | without impacting overall YAP levels | reduce p-YAP levels | reduce ABCG2 transcription levels | – | – |
| 7.30 to 10.00 | Cc1n[nH]c2ccnc(-c3ccc(C4(c5ccc(Cl)cc5)CCNCC4)cc3)c12 [Compound 5, 4-(4-(4-(4-chlorophenyl)piperidin-4-yl)phenyl)-3-methyl-1H-pyrazolo[4,3-c]pyridine] | – | – | – | killed all PANC1 cells | reduced p-YAP levels |
| 7.30 to 10.00 | NC(=O)c1ccc(-c2cnc3ccc(N4CCC(N)CC4)nn23)cc1 [Compound 4, 4-(6-(4-Aminopiperidin-1-yl)imidazo[1,2-b]pyridazin-3-yl)benzamide] | – | – | – | – | – |
| 7.30 to 10.00 | NC(=O)c1ccc(-c2cnc3ccc(N4CCCC(N)C4)nn23)cc1 (stereo not shown) [Compound 3, 4-(6-(3-Aminopiperidin-1-yl)imidazo[1,2-b]pyridazin-3-yl)benzamide] | – | – | – | – | – |

| Structure (SMILES) | pIC50 (LATS1/2) | overall YAP levels [1] | p-YAP levels (YAP phosphorylation) [1] | ABCG2 transcription levels [2] | killing of PANC1 cells at the higher dose (PANC1 cells) | p-YAP levels at the lower dose ([1]; lower dose (5 μM)) |
| --- | --- | --- | --- | --- | --- | --- |
| NC(=O)c1ccc(-c2cnc3ccc(-c4ccc(OCCN5CCOCC5)cc4)nn23)cc1 [Compound 1, 4-(6-(4-(2-Morpholinoethoxy)phenyl)imidazo[1,2-b]pyridazin-3-yl)benzamide] | 6.00 to 8.00 | without impacting overall YAP levels | reduce p-YAP levels | reduce ABCG2 transcription levels | – | – |

— patent US20210221817A1, “NOVEL HETEROAROMATIC COMPOUNDS AS POTENT MODULATORS OF THE HIPPO-YAP SIGNALING PATHWAY LATS1/2 KINASES” (Nivien Therapeutics Compny, priority 2018, published 2021)
